# Patent publication US9242009B2, “Compositions and methods to treat neurodegenerative diseases” (The General Hospital Corporation, priority 2012, dated 2016)
# Entries after “also recorded” stand apart in the source; their conditions may differ. Read-outs that look alike come from different tables or passages of the source.
# Columns and labels:
# SH-SY5Y cells [1] = test: MPP+-induced cytotoxicity in SH-SY5Y cells (CV, MTT assay); assay type: cell-based, Human; conditions: 24 h
# Description: The abilities of ACS48-amantadine, CTBA-memantine, S-memantine, and ACS81-memantine to improve viabilities of SH-SY5Y cells incubated with MPP^+, which has been used for an in-vitro Parkinson's disease model (Robert et al. (2012) Cell Death and Differentiation, 19, 1769-1778), were examined. SH-SY5Y cells (96 well plate, 2×10^5 cells/well) were incubated with MPP^+ (Sigma-Aldrich) at 5 mM in DMEM/F12 at 37° C. for 24 h. ACS48-amantadine, CTBA-memantine, S-memantine, or ACS81-memantine was dissolved in DMSO and added at 5 or 20 μM to the medium 30 min after the addition of MPP^+. The final concentration of DMSO in the medium was adjusted to 0.5% (v/v). Cell viabilities of SH-SY5Y 24 h after the addition of MPP^+ were measured by CV assay or MTT assay.
# mice challenged with LPS = test: LPS-induced cognitive impairment, Morris water-maze
# SH-SY5Y cells [2] = test: Intracellular sulfide levels in SH-SY5Y cells (HPLC); assay type: cell-based, Human
# Description: Human neuroblastoma SH-SY5Y cells were cultured in Eagle's medium/Ham's F-12 50/50 Mix (DMEM/F12, Cellgro by Mediatech, Inc.) supplemented with 10% fetal bovine serum (FBS) and 1% penicillin/streptomycin. The cells were seeded into 96 well plates (2×10^4 cells per well) for OGD and measurements of toxicity, 6 cm dishes (5×10^5 cells per dish) for measurements of sulfide and reduced-glutathione (GSH), or 10 cm dishes (1×10^6 cells per dish) for measurements of intracellular calcium. Cell culture medium was replaced every 2 days, and the cultures were maintained at 37° C. in 95% air/5% CO2 in a humidified incubator. Cells were used after reaching 80% confluent.
# Concentration of free sulfide in SH-SY5Y cells was measured using high performance liquid chromatography (HPLC) (Tokuda et al. (2012) Antioxidants & Redox Signaling). Briefly, SH-SY5Y cells were seeded into 6 cm dishes (5×10^5 cells per dish). After being 80% confluent, 20 μM H2S donor was added to the dish and incubated at 37° C. Cells were washed with ice-cold Tris-HCl (100 mM, PH 9.5, DTPA 0.1 mM) buffer, scraped, transferred to microfuge tubes, and centrifuged. MBB (10 mM in acetonitrile, 50 μl) was added to 100 μl of supernatant. After 30 minutes of incubation at room temperature in dark, 50 μl of 200 mM 5-sulfosalicylic acid (SSA) was added. After centrifugation, supernatant was analyzed by HPLC. For sulfide levels in medium, after centrifugation, supernatant was used for MBB reaction as above.
# In contrast, incubation of SH-SY5Y cells with S-memantine increased intracellular sulfide level more markedly than incubation with ACS48 at all time points after addition (˜10 fold at 4 hours, P<0.001 by two-way ANOVA with Bonferroni post-test). In a separate experiment, we examined whether or not incubation with memantine itself or incubation with ACS48 and memantine would affect intracellular sulfide levels in SH-SY5Y cells.
# SH-SY5Y cells [3] = test: Oxygen-glucose deprivation (OGD) of SH-SY5Y cells, viability by LDH release, MTT and CV assays; assay type: cell-based, Human
# Description: OGD for SH-SY5Y was performed by placing cells in a hypoxia chamber ([…] Technologies Inc.) for 15 hours, followed by 24 hours of reoxygenation as previously reported (FIG. 3A) (Serra-Pérez et al. (2008) Journal of Neurochemistry 106, 1237-1247). Briefly, medium was replaced with glucose-free RPMI 1640 with L-glutamine (Cellgro by Mediatech, Inc), deoxygenated with anaerobic gas mixture (93% N2-5% CO2-2% H2) for 30 minutes before use. Cells were then placed in a hypoxia chamber, flushed with anaerobic gas mixture (93% N2-5% CO2-2% H2) and incubated at 37° C. After 15 hours of hypoxia, medium was replaced with DMEM/F12 and incubated for 24 hours at 37° C. in 95% air/5% CO2 in a humidified incubator.
# (§1) A microtiter plate containing cells was centrifuged at 250×g for 10 minutes and the supernatant was used for LDH measurement with LDH Cytotoxicity Detection Kit (Roche). After aspirating the medium, remaining cells were washed with PBS, then, 100 μl of 1% Triton-X was added to each well, followed by incubation at 37° C. for 30 minutes. Medium and lysates were used for LDH measurement at wavelength 492 nm. Percentage of released LDH was calculated with following formula: {LDH (medium)/LDH (medium+cell)×100}. Average value of control (cells without OGD) was deducted as background.
# Ten μl of thiazolyl blue tetrazolium bromide solution (5 mg/ml in PH 7.4 PBS) was added to each well containing 100 μl of medium and cells, followed by incubation at 37° C. for 4 hours in the dark. Isopropanol (100 μl, 0.04 N HCl) was added to dissolve blue dye. After dissolved completely, absorbance was measured with plate-reader (Synergy 2, BioTek Instrument) at test wavelength 570 nm and reference wavelength 670 nm. Cell viability was determined by absorbance at 570 nm and reported as ratio to control cells (without OGD).
# After aspirating culture medium, cells were fixed and stained by 0.5% CV in 95% (v/v) ethanol for 5 minutes, then washed by tap water several times. After taking photographs, 1% sodium dodecylsulfate solution was added to each well to elute blue dye. Absorbance was measured with plate-reader at 595 nm of wavelength. Values were shown as ratio to control (cells without OGD).
# SH-SY5Y [4] = test: Intracellular GSH levels in SH-SY5Y (HPLC); assay type: cell-based, Human
# Description: Intracellular GSH level of SH-SY5Y was measured using HPLC method as previously reported (Kimura et al. (2009) Antioxidants & Redox Signaling 12, 1-13). Briefly, cells were seeded into 6 cm dishes (5×10^5 cells per dish) and treated with 50 μM H2S donors or memantine with or without 2 mM glutamate for 8 hours, followed by washing with ice-cold PBS. Cells were scraped and transferred to a microfuge tube and sonicated. Some fraction of lysate was used for protein assay. After centrifugation, 75 μl of supernatant, 26 μl of 2-(cyclohexylamino) ethanesulfonic acid (CHES, 0.5 M, PH 8.4), and 4 μl of 50 μM MBB were mixed and incubated at room temperature in dark for 30 minutes. Acetic acid (100 μl, 30% v/v) was added, followed by centrifugation at 15,000×g for 10 min after 5 min incubation of the tube on ice. The supernatant was analyzed using HPLC at wavelength of λex=370 nm and λem=486 nm.
# [5] = system: phosphorylated tau protein at serine 202 and threonine 205; test: LPS-induced tau phosphorylation in mice hippocampus (immunoblot); assay type: in vivo
# [6] = system: murine primary cortical neurons; test: Intracellular calcium level [Ca2+]i (Fura-2/AM) with or without glutamate; assay type: cell-based, mice
# [7] = system: murine primary cortical neurons; test: Amyloid beta-induced toxicity in murine primary cortical neurons (LDH release, MTT); assay type: cell-based, mice; conditions: 24 hours incubation with Aβ1-42 at 20 μM; for Cell viabilities after Aβ1-42: compound 5, 10 or 30 μM
# Description: FIG. 13A-B is a set of two bar graphs depicting cell viability of murine primary cortical neurons exposed to 20 μM amyloid beta (Aβ) and treated with memantine, ACS48, or S-memantine at 5, 10, or 30 μM. Cell viability was estimated by LDH release assay in the left graph and MTT assay in the right graph.
# [8] = system: phosphorylated Akt at threonine 308; test: Immunoblot of phosphorylated Akt in SH-SY5Y after OGD; assay type: cell-based, Human; conditions: 50 μM added 8 hours after end of OGD
# [9] = system: murine primary cortical neurons; test: Cytotoxicity of H2S donors to murine primary cortical neurons (LDH release); assay type: cell-based, mice; conditions: 24 hours
# Description: as §1
# SH-SY5Y [10] = test: Amyloid beta-induced toxicity in SH-SY5Y (LDH release, MTT); assay type: cell-based, Human; conditions: 24 hours incubation with Aβ1-42 at 20 μM; for Cell viabilities after Aβ1-42: compound 20 or 50 μM
# Description: FIG. 12A-B is a set of two bar graphs showing cell viability of SH-SY5Y cells exposed to 20 μM amyloid beta (Aβ) and treated with memantine, ACS48, or S-memantine at 20 or 50 μM. Cell viability was estimated by LDH release assay in the left graph and MTT assay in the right graph.
# [11] = Plasma and cerebral sulfide levels of mice after intraperitoneal administration; assay type: in vivo; conditions: 25 μmol/kg intraperitoneal, 90 minutes after administration
# Excerpt: Blood was drawn from left ventricle and centrifuged to collect the plasma. After perfusion with Tris-HCl buffer via left ventricle, brain was harvested, homogenized in Tris-HCl, and centrifuged. Plasma and supernatant of brain homogenate were derivatized with MBB and analyzed by HPLC.
# [12] = 20 μM added 30 min after 5 mM MPP+
# [13] = time- and dose-range studies, SH-SY5Y
compound,measurement,setting,value
O=C(NC12CC3CC(CC(C3)C1)C2)c1ccc(-c2cssc2=S)cc1 [ACS48-amantadine],Cell viabilities of SH-SY5Y cells after MPP+,SH-SY5Y cells [1]; 5 μM added 30 min after 5 mM MPP+,improved cell viabilities
same,Cell viabilities of SH-SY5Y cells after MPP+,SH-SY5Y cells [1]; [12],improved cell viabilities
Sodium sulfide [Na2S],Latency until getting platform in Morris water-maze test,"mice challenged with LPS; mouse, in vivo",improved latency
same,"Aβ1-42 accumulation in mice cortex, or hippocampus","Aβ1-42; mouse, in vivo",prevented Aβ1-42 accumulation
same,Prevention of Aβ1-42 accumulation compared with memantine,"Aβ1-42; mouse, in vivo",prevented Aβ1-42 accumulation more markedly than did memantine
same,Intracellular sulfide levels,SH-SY5Y cells [2],increased intracellular sulfide levels
same,Time of peak intracellular sulfide levels after addition,SH-SY5Y cells [2],around 1.5 hours
same,Cell viability after OGD (LDH release),SH-SY5Y cells [3],did not improve cell viability; also recorded: failed to improve cell viability; also recorded: No significant difference
same,Intracellular GSH levels,SH-SY5Y [4],increased intracellular GSH levels; also recorded: restored intracellular GSH levels
same,LPS-induced tau phosphorylation at serine 202 and threonine 205 in mice hippocampus,"[5]; mouse, in vivo",prevented LPS-induced tau phosphorylation
same,Glutamate-induced calcium accumulation,[6],augmented glutamate-induced calcium accumulation
same,Increase of intracellular calcium [Ca2+]i,[6],increased
CC12CC3CC(C)(C1)CC(NC(=O)c1ccc(C(N)=S)cc1)(C3)C2 [CTBA-memantine],Cell viabilities of SH-SY5Y cells after MPP+,SH-SY5Y cells [1]; [12],improved cell viabilities
CC12CC3CC(C)(C1)CC(N)(C3)C2 [memantine],Swimming speed in Morris water-maze test,mice challenged with LPS; 45 μmol/kg i.p.,did not change it
same,Swimming speed in Morris water-maze test,mice challenged with LPS; 90 μmol/kg i.p.,slowed swimming speed
same,Cell viabilities after Aβ1-42,[7],improved cell viabilities
same,"Aβ1-42 accumulation in mice cortex, or hippocampus","Aβ1-42; 45 μmol/kg pretreatment, LPS challenge for 7 days",prevented Aβ1-42 accumulation
same,Effect of memantine on intracellular sulfide levels,"SH-SY5Y cells [2]; 20 μM memantine, cells incubated with or without ACS48 20 μM",did not affect intracellular sulfide levels
same,"GSH levels, memantine per se","SH-SY5Y [4]; 50 μM, 8 hours",did not affect GSH levels
same,Akt phosphorylation after OGD,[8],did not affect Akt phosphorylation
same,LPS-induced tau phosphorylation at serine 202 and threonine 205 in mice hippocampus,[5]; 45 μmol/kg pretreatment,prevented LPS-induced tau phosphorylation
same,Glutamate-induced calcium accumulation,"[6]; 20 μM, 100 μM glutamate",suppressed calcium accumulation
same,LDH release caused by Na2S or ACS48 on co-incubation with memantine,[9]; 50 μM Na2S or ACS48 plus 50 μM memantine,abolished
same,Cell viabilities after Aβ1-42,SH-SY5Y [10],improved cell viabilities
"O=C(O)c1ccc(-c2cssc2=S)cc1 [ACS48, 4-(3-thioxo-3H-1,2-dithiol-4-yl)-benzoic acid]",Cell viabilities after Aβ1-42 compared with memantine,[7],improved cell viabilities more markedly than did memantine
same,Cell viabilities after Aβ1-42,[7],improved cell viabilities
same,Time of peak intracellular sulfide levels after addition,"SH-SY5Y cells [2]; 20 μM, SH-SY5Y",around 1.5 hours
same,Intracellular sulfide levels,"SH-SY5Y cells [2]; 20 μM, SH-SY5Y, 37° C.",increased intracellular sulfide levels
same,Most effective dose to improve viability after OGD,SH-SY5Y cells [3]; [13],50 µM
same,Most effective time point of addition after the end of OGD,SH-SY5Y cells [3]; [13],8 h
same,Plasma sulfide levels,[11],increased plasma sulfide levels
same,Intracellular GSH levels,"SH-SY5Y [4]; 50 μM, 8 hours, with 2 mM glutamate",restored intracellular GSH levels
same,Intracellular GSH levels,"SH-SY5Y [4]; 50 μM, 8 hours, without glutamate",increased intracellular GSH levels
same,Glutamate-induced calcium accumulation,"[6]; 20 μM, 100 μM glutamate",augmented glutamate-induced calcium accumulation
same,Increase of intracellular calcium [Ca2+]i,"[6]; 20 μM, without glutamate",increased
same,LDH release (cytotoxicity),"[9]; 50 μM, without memantine",markedly increased LDH release
same,Cell viabilities after Aβ1-42 compared with memantine,SH-SY5Y [10],improved cell viabilities more markedly than did memantine
same,Cell viabilities after Aβ1-42,SH-SY5Y [10],improved cell viabilities
